# Experimental data reported in patent US20240043794A1, “Chemically Defined Serum Albumin Substitutes” (Life Technologies Corporation, priority 2020, published 2024).
# Read-outs that look alike come from different tables or passages of the source.
# What was measured:
# [1] = test system: Rat cortical neuron (RCN) cells; assay: Rat cortical neuron (RCN) survival in neurobasal medium with ITS; assay type: cell-based; settings: for RCN cell survival: increasing concentrations, assessed on day 6
# Source text: (§1) Trolox (6-hydroxy-2,5,7,8-tetramethylchroman-2-carboxylic acid), a water-soluble derivative of Vitamin E, was investigated as a replacement for albumin. […] Without any anti-oxidant, aged neurons started to degenerate at about day 4, leaving few viable neurons left on the plate.
# rat neurons [2] = test system: rat neurons
# Procedure: (§5) The effect of different BSAs on cell viability was tested using the eBioscience™ Calcein AM Viability Dye, according to manufacturer's protocol. Briefly, rat neurons were cultured in neurobasal medium supplemented with ITS and BSA1 or BSA2 at a concentration of 0.25%.
# (§6) The ability of antioxidant to reverse iron-induced toxicity was then investigated. Tocopherol at a concentration of 2 μg/mL in neurobasal medium supplemented with lean supplement (Insulin-Transferrin-Selenium, ITS) was added to cultured rat neuron cells and either BSA1 or BSA2.
# neuronal cell = assay: Interactions between B27 supplement components and albumins, neuronal cell viability; assay type: cell-based; settings: B27-supplemented media
# Procedure: Next, interactions between different components of B27 supplement and various albumins were analyzed (FIGS. 1B-1J). The effect of these molecular interactions were also assessed for their effect on neuronal cell stability in cell culture.
# rat neuron cells [3] = assay: Rat neuron viability with synthetic peptides replacing albumin; assay type: cell-based; settings: for rat neuron cell viability, HSA supportive properties: culture medium lacking albumin, FIG. 10; for viability of cultured rat neuron cells, HSA-like function: FIG. 11; for rat neuron cell growth: neurobasal medium with ITS, day 5, Calcein AM, FIG. 20
# Source text: Albumins such as HSA have a metal binding site, which functions as a chelator of transition metals that are toxic to neuron cells. Applicants therefore investigated whether HSA may be replaced by a synthetic peptide, which mimics the high affinity binding of the functional metal binding site. […] Peptide B, which is the Peptide C sequence extended by 5 additional flanking HSA residues on either end, was similarly non-functional. […] Without wishing to be bound by scientific theory, the additional amino acid residues may block or otherwise inhibit the chelating functions of the Peptide C sequence.
# The importance of Peptide C ionic property and sequence specificity in conferring enhancing properties to cell cultures was investigated. The tetrapeptide DAHK (SEQ ID NO:1) is a sequence comprising negatively, neutral, and two positively charged amino acids (−X++). […] To assess if amino acid sequence or charge specificity confers beneficial properties, a scrambled Peptide C sequence was prepared and tested. The scrambled peptide comprising the sequence AKDH (SEQ ID NO: 3; scramble) and charge of X+−+ was tested, and results are shown in FIG. 11.
# To determine the impact of peptide length, Applicants assessed a variety of peptides that varied both in length and in the identity of the amino acid residue(s) that flank the Peptide C DAHK sequence (SEQ ID NO:1). Further, to assess the effect of ionic property, peptides were tested that included amino acid substitutions to the peptide of SEQ ID NO:1. The amino acid substitutions were designed to retain ionic and hydrophobic properties of SEQ ID NO:1, namely by preserving the order of negatively charged, hydrophobic uncharged, and positively charged residues. […] The cultures were further supplemented with rHSA, or a variation of the Peptide C derived synthetic peptide.
# In a first set of cell cultures, the synthetic peptides included the DAHK (SEQ ID NO:1) amino acid sequence or peptides with additional residues on one or both the N-terminus and C-terminus of SEQ ID NO:1. On day 5 of culturing, the cells were labeled with Calcein AM and counted. […] That is, the length of adjacent residues on the N-terminus and C-terminus of the peptide is not critical for maintaining the function of peptide C unless the conformation is impacted as so not to maintain its beneficial properties in cell culture.
# rat neurons [4] = assay: Calcein AM viability assay of rat neurons in neurobasal medium with ITS
# Procedure: as §5, §6
# [5] = Superoxide Dismutase (SOD) Colorimetric Activity Kit; assay type: biochemical; settings: range of concentrations
# Procedure: Applicants first analyzed the superoxide dismutase (SOD) activity of various albumins, utilizing the Superoxide Dismutase (SOD) Colorimetric Activity Kit (Thermo Fisher Scientific, Waltham, MA), according to the manufacturer's protocol. Briefly, SOD activity was assessed utilizing an assay comprising the reaction of a substrate and Xanthine Oxidase to form superoxide (O^−2), the levels of which are decreased by SOD activity.
# Next, the ability of chemically defined components to replace SOD antioxidant activity was tested. Mito-Tempo, which scavenges O2•^− in mitochondria, was compared with HSA for its ability to reduce superoxide, as assessed using the Superoxide Dismutase (SOD) Colorimetric Activity Kit (Thermo Fisher Scientific, Waltham, MA), according to the manufacturer's protocol.
# [6] = test system: mouse embryonic stem cell (mESC); assay: Copper-stressed mESC proliferation, PRESTOBLUE viability; assay type: cell-based; settings: 50 μM copper, 100 μg/mL or 50 μg/mL peptide
# Procedure: (§2) The effect of metals and synthetic peptides were further assessed in mouse embryonic stem cell (mESC) and HEK293 cell proliferation cultures. mESC and HEK293 cultures were spiked with 50 μM copper, thereby creating a toxic culture environment and inhibiting cell proliferation. […] PRESTOBLUE™ cell viability reagent (Thermo Fisher Scientific, Waltham, MA), was used to assess viability according to the manufacturer's protocol.
# HEK293 cells = assay: Copper-stressed HEK293 proliferation, PRESTOBLUE viability; assay type: cell-based; settings: 50 μM copper, 100 μg/mL or 50 μg/mL peptide
# Procedure: as §2
# [7] = Lot-to-lot consistency and shelf life of the peptide; assay type: physicochemical; settings: multiple lots, in solution
# [8] = test system: FoxG1 expression in pluripotent stem cells (PSC); assay: FoxG1 expression and specification of PSC differentiation, ICC and qPCR; assay type: cell-based, human
# Procedure: Peptide C (SEQ ID NO:1) was assessed for its effect on cell differentiation. […] Without wishing to be bound by theory, this was likely due to variations in cholesterol levels within the albumin samples. To assess the effect of the tetrapeptide […] on cell differentiation, pluripotent stem cells (PSC) were cultured in the presence either BSA1, BSA2, or peptide C. […] Results are shown in FIGS. 17A and 17B, respectively. […] Upon differentiation, cells will develop their positional identity such as forebrain, midbrain, hindbrain etc. Specification is the step where PSC develop this positional identification.
# rat neuron cells [9] = settings: 50 μM copper, neurobasal medium with ITS
# rat neurons [10] = assay: Rat neuron viability with low or high GSH or lipoic acid; assay type: cell-based; settings: low or high concentration, compared to control culture
# Procedure: Applicants then tested chemically defined components that may replace the catalase and thiol antioxidant activity of albumins. GSH and lipoic acid were assessed for their ability to provide catalase and thiol antioxidant activity by culturing rat neurons in the presence of either low or high concentrations of GSH or lipoic acid and subsequently assaying cell viability.
# [11] = test system: mouse pluripotent stem cells (PSC); assay: B-27 supplemented cell culture performance of albumins, mouse PSC; assay type: cell-based; settings: B-27 supplemented culture
# Procedure: (§3) Commercially available albumins were analyzed for performance in cell cultures. Bovine serum albumin (BSA), human serum albumin (HSA) and recombinant human serum albumin (Rec HSA) from various sources (including different manufacturers, bovine, human, recombinant HSA (made in yeast or rice), and Freestyle CHO MAX media (Thermo Fisher cat. no. K900020) were analyzed. B-27 (Thermo Fisher Scientific cat. no. 17504044) supplemented cell cultures for mouse pluripotent stem cells (PSC), primary rat neurons, or human neural stem cells (NSC) were prepared (approx. 0.5 to 1× final concentration of B27 in medium). The cultures varied only in the source or type of albumin present. Results shown in FIG. 1A illustrate that significant performance differences existed among the albumins tested, and further that performance is dependent on cell type. In fact, two cultures comprising the same cell line and differing only in addition of BSA1 or BSA2 differed in performance.
# [12] = test system: human neural stem cells (NSC); assay: B-27 supplemented cell culture performance of albumins, human NSC; assay type: cell-based; settings: B-27 supplemented culture
# Procedure: as §3
# [13] = test system: Mouse embryonic stem cells (mESC); assay: mESC proliferation, PrestoBlue assay; assay type: cell-based; settings: compared to BSA1
# Procedure: (§4) BSA1 and BSA2 were further analyzed for their effect on stem cells. Mouse embryonic stem cells (mESC) or human neural stem cells (hNSC) were grown in cell culture media containing BSA1 or BSA2, and proliferation was measured. Proliferation of mESCs was measured using PrestoBlue assay (Thermo Fisher Scientific) according to the manufacturer's protocol. Proliferation of hNSCs was measured with VI-CELL™ XR cell counting assay (Beckman Coulter) according to the manufacturer's protocol.
# [14] = test system: human neural stem cells (hNSC); assay: hNSC proliferation, VI-CELL XR cell counting assay; assay type: cell-based; settings: compared to BSA1
# Procedure: as §4
# Water solubility = assay type: physicochemical; settings: compared to Vitamin E
# Source text: as §1
compound,measurement,setting,value
Vitamin E,RCN cell survival,[1],reversed cell death
[Fe] [iron],rat neuron viability,rat neurons [2],rat neuron viability was decreased
"CC(=O)Oc1c(C)c(C)c2c(c1C)CCC(C)(CCC[C@H](C)CCC[C@H](C)CCCC(C)C)O2 (stereo partly drawn) [X2, Tocopherol acetate]",effect on neuronal cell viability of B27 component interacting with BSA and HSA,neuronal cell,positive effects on neuronal cell viability
GVFRRDAHKSEVAH [Peptide B],"rat neuron cell viability, HSA supportive properties",rat neuron cells [3],non-functional
DTHK [counterpart BSA peptide],"viability of cultured rat neuron cells, HSA-like function",rat neuron cells [3],functional in improving viability of cultured rat neuron cells
Tocopherol [reference compound],effect on neuronal cell viability of B27 component interacting with BSA and HSA,neuronal cell,positive effects on neuronal cell viability
same,reversal of decreased viability due to BSA1 or iron,rat neurons [4]; 2 μg/mL,reversed decreased viability of the rat neuron cells
"CC1(C)CC(NC(=O)C[P+](c2ccccc2)(c2ccccc2)c2ccccc2)CC(C)(C)N1[O] [Mito-Tempo, (2-(2,2,6,6-tetramethylpiperidin-1-oxyl-4-ylamino)-2-oxoethyl)triphenylphosphonium chloride]",superoxide levels,[5],decrease superoxide levels in a dose-dependent manner
FRRDAHKSEV [SEQ ID NO:16],rat neuron cell growth,rat neuron cells [3],convey beneficial properties to cell culture
DAHK [Peptide C],"viability of cultured rat neuron cells, HSA-like function",rat neuron cells [3],functional in improving viability of cultured rat neuron cells
same,"rat neuron cell viability, HSA supportive properties",rat neuron cells [3],enhanced rat neuron cell viability
same,rescue of copper stressed cells,[6],rescued the stressed cells in a concentration dependent manner
same,rescue of copper stressed cells,HEK293 cells,to a lesser extent
same,lot-to-lot consistency and shelf life,[7],"lot-to-lot consistency and good shelf life, even in solution"
same,specification of PSC differentiation,[8],no significant impact
same,prevention of copper induced toxicity,rat neuron cells [9],prevented toxicity even in the presence of copper
AKDH [reference compound],"viability of cultured rat neuron cells, HSA-like function",rat neuron cells [3],the HSA-like function was abolished
FRRDAHKSEVA [SEQ ID NO:17],rat neuron cell growth,rat neuron cells [3],convey beneficial properties to cell culture
"O=C(O)CCCC[C@@H]1CCSS1 (racemic) [Lipoic acid, lipoic acid]",rat neuron cell viability,rat neurons [10],enhanced rat neuron cell viability
BSA1: BSA source with higher iron content; fatty acid free,cell culture performance,[11],supportive properties
same,cell culture performance,[12],supportive properties
same,specification of PSC differentiation,[8],specification of PSC differentiation was impacted
same,rat neuron viability,"rat neurons [4]; albumin at 0.25%, compared to BSA2",reduced viability of rat neurons
"N[C@@H](CCC(=O)N[C@@H](CS)C(=O)NCC(=O)O)C(=O)O [GSH, glutathione]",rat neuron cell viability,rat neurons [10],neither concentration of GSH tested showed significant effects on cell viability
SAYSRGVFRRDAHKSEVAHRFKD [peptide A],"rat neuron cell viability, HSA supportive properties",rat neuron cells [3],did not retain HSA supportive properties
BSA2: BSA from a second source; fatty acid rich,cell culture performance,[11],caused toxicity
same,cell culture performance,[12],caused toxicity
same,proliferation of mESC,[13],reduces proliferation
same,proliferation of hNSC,[14],reduces proliferation
same,specification of PSC differentiation,[8],specification of PSC differentiation was impacted
RRDAHK [SEQ ID NO:12],rat neuron cell growth,rat neuron cells [3],convey beneficial properties to cell culture
"Cc1c(C)c2c(c(C)c1O)CCC(C)(C(=O)O)O2 (stereo not drawn) [Trolox, 6-hydroxy-2,5,7,8-tetramethylchroman-2-carboxylic acid]",working range,[1]; compared to Vitamin E,wider working range than Vitamin E
same,RCN cell survival,[1],reversed cell death
same,water solubility,Water solubility,higher water solubility
RRDAHKS [SEQ ID NO:13],rat neuron cell growth,rat neuron cells [3],convey beneficial properties to cell culture
RRDAHKSE [SEQ ID NO:15],rat neuron cell growth,rat neuron cells [3],convey beneficial properties to cell culture
